# Values joined by “and” are separate entries in the source; they are usually repeats but may differ in a detail not shown here. Equal entries are not always repeated.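 Cells were grown in 96-well plates and exposed to each compound for 48 hours at five concentrations; endpoints were interpolated linearly between bracketing concentrations, or set to the highest concentration if not reached. GI50 is the concentration that inhibits growth by half.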 Active and inactive are the calls of the source. No stated cut-off is given here; in the data, active = GI50 up to about 1.1 µM and inactive = higher.
# What was measured:
# Assay in all cases: NCI tumour cell line growth inhibition, 48 h
# NCI-H23 = tested on: NCI-H23
# DLD-1 = tested on: DLD-1
# HOP-62 = tested on: HOP-62
# SF-268 = tested on: SF-268
# 786-0 = tested on: 786-0
# CCRF-CEM = tested on: CCRF-CEM
# SN12C = tested on: SN12C
# SF-539 = tested on: SF-539
# HCT-116 = tested on: HCT-116
# SK-OV-3 = tested on: SK-OV-3
# EKVX = tested on: EKVX
# OVCAR-4 = tested on: OVCAR-4
# SK-MEL-5 = tested on: SK-MEL-5
# OVCAR-3 = tested on: OVCAR-3
# DMS-273 = tested on: DMS-273
# A549 = tested on: A549
# OVCAR-5 = tested on: OVCAR-5
# U-251 = tested on: U-251
# K562 = tested on: K562
# A498 = tested on: A498
# SNB-75 = tested on: SNB-75
# M14 = tested on: M14
# HCT-15 = tested on: HCT-15
# LOX IMVI = tested on: LOX IMVI
# SK-MEL-28 = tested on: SK-MEL-28
# SK-MEL-2 = tested on: SK-MEL-2
# UO-31 = tested on: UO-31
# TK-10 = tested on: TK-10
# RPMI-8226 = tested on: RPMI-8226
# SF-295 = tested on: SF-295
# IGROV-1 = tested on: IGROV-1
# HOP-92 = tested on: HOP-92
# KM-20L2 = tested on: KM-20L2
# OVCAR-8 = tested on: OVCAR-8
# MOLT-4 = tested on: MOLT-4
# UACC-257 = tested on: UACC-257
# UACC-62 = tested on: UACC-62
# M19-MEL = tested on: M19-MEL
# ACHN = tested on: ACHN
# Malme-3M = tested on: Malme-3M
# SW-620 = tested on: SW-620
# COLO 205 = tested on: COLO 205
# LXFL 529 = tested on: LXFL 529
# NCI-H460 = tested on: NCI-H460
# HT-29 = tested on: HT-29
# HCC 2998 = tested on: HCC 2998
# NCI-H522 = tested on: NCI-H522
# KM12 = tested on: KM12
# SNB-19 = tested on: SNB-19
# HL-60 = tested on: HL-60
# SR = tested on: SR
smiles,measurement,setting,value
Cc1cc2c(=O)cc(-c3cccs3)oc2c(C(=O)O)c1C,GI50,NCI-H23,> 100 µM (inactive)
same,GI50,DLD-1,> 100 µM (inactive)
same,GI50,HOP-62,> 100 µM (inactive)
same,GI50,SF-268,34.2 µM (inactive)
same,GI50,786-0,> 100 µM (inactive)
same,GI50,CCRF-CEM,64.7 µM (inactive)
same,GI50,SN12C,> 100 µM (inactive)
same,GI50,SF-539,> 10 µM (inactive)
same,GI50,HCT-116,> 100 µM (inactive)
same,GI50,SK-OV-3,> 100 µM (inactive)
same,GI50,EKVX,> 100 µM (inactive)
same,GI50,OVCAR-4,> 100 µM (inactive)
same,GI50,SK-MEL-5,> 100 µM (inactive)
same,GI50,OVCAR-3,> 100 µM (inactive)
same,GI50,DMS-273,> 100 µM (inactive)
same,GI50,A549,> 100 µM (inactive)
same,GI50,OVCAR-5,> 100 µM (inactive)
same,GI50,U-251,> 100 µM (inactive)
same,GI50,K562,35.8 µM (inactive)
same,GI50,A498,> 100 µM (inactive)
same,GI50,SNB-75,1.56 µM (inactive)
same,GI50,M14,> 100 µM (inactive)
same,GI50,HCT-15,42.8 µM
same,GI50,LOX IMVI,> 100 µM (inactive)
same,GI50,SK-MEL-28,> 100 µM (inactive)
same,GI50,SK-MEL-2,> 100 µM (inactive)
same,GI50,UO-31,> 100 µM (inactive)
same,GI50,TK-10,> 100 µM (inactive)
same,GI50,RPMI-8226,59.3 µM (inactive)
same,GI50,SF-295,> 100 µM (inactive)
same,GI50,IGROV-1,> 100 µM (inactive)
same,GI50,HOP-92,> 100 µM (inactive)
same,GI50,KM-20L2,> 100 µM (inactive)
same,GI50,OVCAR-8,> 100 µM (inactive)
same,GI50,MOLT-4,> 100 µM (inactive)
same,GI50,UACC-257,> 100 µM (inactive)
same,GI50,UACC-62,> 100 µM (inactive)
same,GI50,M19-MEL,> 100 µM (inactive)
same,GI50,ACHN,> 100 µM (inactive)
same,GI50,Malme-3M,> 100 µM (inactive)
same,GI50,SW-620,> 100 µM (inactive)
same,GI50,COLO 205,> 100 µM (inactive)
same,GI50,LXFL 529,49.4 µM (inactive)
same,GI50,NCI-H460,> 100 µM (inactive)
same,GI50,HT-29,> 100 µM (inactive)
same,GI50,HCC 2998,> 100 µM (inactive)
same,GI50,NCI-H522,21.2 µM (inactive)
same,GI50,KM12,97.7 µM (inactive)
same,GI50,SNB-19,> 100 µM (inactive)
C/C=C/C=C/CCCCCCCCCCCCC[C@]1(OC)C=C[C@@H](CC(=O)OC)OO1 [XESTIN A],GI50,SF-268,17.3 µM (inactive) and 21.7 µM (inactive)
same,GI50,SN12C,12.9 µM (inactive) and 21.6 µM (inactive)
same,GI50,SF-539,15.2 µM (inactive) and 19.7 µM (inactive)
same,GI50,HCT-116,16.1 µM (inactive) and 10.1 µM (inactive)
same,GI50,SK-OV-3,28.6 µM (inactive) and 19.5 µM (inactive)
same,GI50,SK-MEL-5,15.6 µM (inactive) and 10.1 µM (inactive)
same,GI50,DMS-273,1.57 µM (inactive)
same,GI50,U-251,14.7 µM (inactive) and > 10 µM (inactive)
same,GI50,K562,12.2 µM (inactive) and 20.5 µM (inactive)
same,GI50,SNB-75,17.4 µM (inactive) and 9.64 µM (inactive)
same,GI50,M14,14.8 µM (inactive) and 17 µM (inactive)
same,GI50,SK-MEL-28,15.3 µM (inactive) and 17.5 µM (inactive)
same,GI50,SK-MEL-2,15.5 µM (inactive) and 25.5 µM (inactive)
same,GI50,UO-31,2.77 µM (inactive)
same,GI50,RPMI-8226,7.45 µM (inactive) and 13.5 µM (inactive)
same,GI50,HOP-92,1.88 µM (inactive)
same,GI50,HL-60,3.59 µM (inactive)
same,GI50,UACC-257,20.2 µM (inactive) and 17.4 µM (inactive)
same,GI50,UACC-62,14.1 µM (inactive) and 15.3 µM (inactive)
same,GI50,M19-MEL,16.9 µM (inactive) and 11 µM (inactive)
same,GI50,Malme-3M,26.7 µM (inactive) and 21.4 µM (inactive)
same,GI50,NCI-H460,22.4 µM (inactive) and 15.1 µM (inactive)
same,GI50,SR,2.36 µM (inactive)
same,GI50,SNB-19,17.8 µM (inactive)

# Source: ChEMBL document CHEMBL1201862, “PubChem BioAssay data set” (2004)
